In ChEMBL document CHEMBL2331210, “New 2-benzylsulfanyl-nicotinic acid based 1,3,4-oxadiazoles: their synthesis and biological evaluation” (2013):
Converted amounts (≈) assume the structure as drawn.

Tests used:
HCT-15 = test: Antitumor activity against human HCT15 cells assessed as cell growth at 0.1 uM; assay type: functional; settings: read-out: Activity
SK-MEL-2 = test: cells; settings: Homo sapiens, SK-MEL-2, read-out: Activity
Description: Antitumor activity against human SK-MEL-2 cells assessed as cell growth at 0.1 uM

BT-549 = test: Antitumor activity against human BT549 cells assessed as cell growth at 0.1 uM; assay type: functional; settings: read-out: Activity
OVCAR-3 = test: Antitumor activity against human OVCAR3 cells assessed as cell growth at 0.1 uM; assay type: functional; settings: read-out: Activity
SF-539 = test: Antitumor activity against human SF539 cells assessed as cell growth at 0.1 uM; assay type: functional; settings: read-out: Activity
HT-29 = test: Antitumor activity against human HT-29 cells assessed as cell growth at 0.1 uM; assay type: functional; settings: read-out: Activity
Aspergillus niger = test: Antimicrobial activity against Aspergillus niger MTCC 282 assessed as growth inhibition measured after overnight incubation by broth dilution method; assay type: functional
Malme-3M = test: Antitumor activity against human MALME-3M cells assessed as cell growth at 0.1 uM; assay type: functional; settings: read-out: Activity
RPMI-8226 = test: Antitumor activity against human RPMI8226 cells assessed as cell growth at 0.1 uM; assay type: functional; settings: read-out: Activity
SN12C = test: Antitumor activity against human SN12C cells assessed as cell growth at 0.1 uM; assay type: functional; settings: read-out: Activity
MDA-MB-435 = test: Antitumor activity against human MDA-MB-435 cells assessed as cell growth at 0.1 uM; assay type: functional; settings: read-out: Activity
TK-10 = test: Antitumor activity against human TK10 cells assessed as cell growth at 0.1 uM; assay type: functional; settings: read-out: Activity
[1] = Antitumor activity against human EKVX cells assessed as cell growth at 0.1 uM; assay type: functional; settings: read-out: Activity
A549 = test: Antitumor activity against human A549/ATCC cells assessed as cell growth at 0.1 uM; assay type: functional; settings: read-out: Activity
ACHN = test: Antitumor activity against human ACHN cells assessed as cell growth at 0.1 uM; assay type: functional; settings: read-out: Activity
UO-31 = test: Antitumor activity against human UO31 cells assessed as cell growth at 0.1 uM; assay type: functional; settings: read-out: Activity
Candida albicans = test: Antimicrobial activity against Candida albicans MTCC 227 assessed as growth inhibition measured after overnight incubation by broth dilution method; assay type: functional
NCI-H23 = test: Antitumor activity against human NCI-H23 cells assessed as cell growth at 0.1 uM; assay type: functional; settings: read-out: Activity
SW-620 = test: Antitumor activity against human SW620 cells assessed as cell growth at 0.1 uM; assay type: functional; settings: read-out: Activity
NCI-H226 = test: Antitumor activity against human NCI-H226 cells assessed as cell growth at 0.1 uM; assay type: functional; settings: read-out: Activity
IGROV-1 = test: Antitumor activity against human IGROV1 cells assessed as cell growth at 0.1 uM; assay type: functional; settings: read-out: Activity
SK-OV-3 = test: Antitumor activity against human SKOV3 cells assessed as cell growth at 0.1 uM; assay type: functional; settings: read-out: Activity
SK-MEL-28 = test: Antitumor activity against human SK-MEL-28 cells assessed as cell growth at 0.1 uM; assay type: functional; settings: read-out: Activity
Aspergillus clavatus = test: Antimicrobial activity against Aspergillus clavatus MTCC 1323 assessed as growth inhibition measured after overnight incubation by broth dilution method; assay type: functional
U-251 = test: Antitumor activity against human U251 cells assessed as cell growth at 0.1 uM; assay type: functional; settings: read-out: Activity
NCI/ADR-RES = test: Antitumor activity against human NCI/ADR-RES cells assessed as cell growth at 0.1 uM; assay type: functional; settings: read-out: Activity
SR = test: Antitumor activity against human SR cells assessed as cell growth at 0.1 uM; assay type: functional; settings: read-out: Activity
LOX IMVI = test: Antitumor activity against human LOXIMVI cells assessed as cell growth at 0.1 uM; assay type: functional; settings: read-out: Activity
UACC-62 = test: Antitumor activity against human UACC62 cells assessed as cell growth at 0.1 uM; assay type: functional; settings: read-out: Activity
RXF 393 = test: Antitumor activity against human RXF393 cells assessed as cell growth at 0.1 uM; assay type: functional; settings: read-out: Activity
DU-145 = test: Antitumor activity against human DU145 cells assessed as cell growth at 0.1 uM; assay type: functional; settings: read-out: Activity
MOLT-4 = test: Antitumor activity against human MOLT4 cells assessed as cell growth at 0.1 uM; assay type: functional; settings: read-out: Activity
A498 = test: Antitumor activity against human A498 cells assessed as cell growth at 0.1 uM; assay type: functional; settings: read-out: Activity
PC-3 = test: Antitumor activity against human PC3 cells assessed as cell growth at 0.1 uM; assay type: functional; settings: read-out: Activity
[2] = Antitumor activity against human Hs 578T cells assessed as cell growth at 0.1 uM; assay type: functional; settings: read-out: Activity
Escherichia coli = test: Antimicrobial activity against Escherichia coli MTCC 443 assessed as growth inhibition measured after overnight incubation by broth dilution method; assay type: functional
[3] = Antitumor activity against human HCC2998 cells assessed as cell growth at 0.1 uM; assay type: functional; settings: HCC 2998, read-out: Activity
CCRF-CEM = test: Antitumor activity against human CCRF-CEM cells assessed as cell growth at 0.1 uM; assay type: functional; settings: read-out: Activity
SNB-19 = test: Antitumor activity against human SNB19 cells assessed as cell growth at 0.1 uM; assay type: functional; settings: read-out: Activity
OVCAR-5 = test: Antitumor activity against human OVCAR5 cells assessed as cell growth at 0.1 uM; assay type: functional; settings: read-out: Activity
Streptococcus pyogenes = test: Antimicrobial activity against Streptococcus pyogenes MTCC 442 assessed as growth inhibition measured after overnight incubation by broth dilution method; assay type: functional
NCI-H460 = test: Antitumor activity against human NCI-H460 cells assessed as cell growth at 0.1 uM; assay type: functional; settings: read-out: Activity
Pseudomonas aeruginosa = test: Antimicrobial activity against Pseudomonas aeruginosa MTCC 2488 assessed as growth inhibition measured after overnight incubation by broth dilution method; assay type: functional
OVCAR-8 = test: Antitumor activity against human OVCAR8 cells assessed as cell growth at 0.1 uM; assay type: functional; settings: read-out: Activity
SNB-75 = test: Antitumor activity against human SNB75 cells assessed as cell growth at 0.1 uM; assay type: functional; settings: read-out: Activity
MCF7 = test: Antitumor activity against human MCF7 cells assessed as cell growth at 0.1 uM; assay type: functional; settings: read-out: Activity
M14 = test: Antitumor activity against human M14 cells assessed as cell growth at 0.1 uM; assay type: functional; settings: read-out: Activity
MDA-MB-231 = test: Antitumor activity against human MDA-MB-231/ATCC cells assessed as cell growth at 0.1 uM; assay type: functional; settings: read-out: Activity
K562 = test: Antitumor activity against human K562 cells assessed as cell growth at 0.1 uM; assay type: functional; settings: read-out: Activity
SF-268 = test: Antitumor activity against human SF268 cells assessed as cell growth at 0.1 uM; assay type: functional; settings: read-out: Activity
Staphylococcus aureus = test: Antimicrobial activity against Staphylococcus aureus MTCC 96 assessed as growth inhibition measured after overnight incubation by broth dilution method; assay type: functional
[4] = test system: Mycobacterium tuberculosis; test: Antitubercular activity against Mycobacterium tuberculosis H37Rv assessed as growth inhibition after 12 to 28 days by L.J. agar MIC method; assay type: functional
MDA-MB-468 = test: Antitumor activity against human MDA-MB-468 cells assessed as cell growth at 0.1 uM; assay type: functional; settings: read-out: Activity
CAKI-1 = test: Antitumor activity against human CAKI-1 cells assessed as cell growth at 0.1 uM; assay type: functional; settings: read-out: Activity
NCI-H522 = test: Antitumor activity against human NCI-H522 cells assessed as cell growth at 0.1 uM; assay type: functional; settings: read-out: Activity
HL-60 = test: Antitumor activity against human HL60(TB) cells assessed as cell growth at 0.1 uM; assay type: functional; settings: read-out: Activity
SF-295 = test: Antitumor activity against human SF295 cells assessed as cell growth at 0.1 uM; assay type: functional; settings: read-out: Activity
T47D = test: Antitumor activity against human T47D cells assessed as cell growth at 0.1 uM; assay type: functional; settings: read-out: Activity
HCT-116 = test: Antitumor activity against human HCT116 cells assessed as cell growth at 0.1 uM; assay type: functional; settings: read-out: Activity
UACC-257 = test: Antitumor activity against human UACC257 cells assessed as cell growth at 0.1 uM; assay type: functional; settings: read-out: Activity
HOP-62 = test: Antitumor activity against human HOP62 cells assessed as cell growth at 0.1 uM; assay type: functional; settings: read-out: Activity
OVCAR-4 = test: Antitumor activity against human OVCAR4 cells assessed as cell growth at 0.1 uM; assay type: functional; settings: read-out: Activity
SK-MEL-5 = test: Antitumor activity against human SK-MEL-5 cells assessed as cell growth at 0.1 uM; assay type: functional; settings: read-out: Activity

Compound: COc1cc(OC)nc(NC(=O)CSc2nnc(-c3cccnc3SCc3ccccc3)o2)n1
- growth at 0.1 µM (HCT-15): 105%
- growth at 0.1 µM (SK-MEL-2): 102%
- growth at 0.1 µM (BT-549): 99.6%
- growth at 0.1 µM (OVCAR-3): 102%
- growth at 0.1 µM (SF-539): 94.5%
- growth at 0.1 µM (HT-29): 100%
- MIC (Aspergillus niger): 500 µg/mL (≈ 1010 µM)
- growth at 0.1 µM (Malme-3M): 98.2%
- growth at 0.1 µM (RPMI-8226): 101%
- growth at 0.1 µM (SN12C): 106%
- growth at 0.1 µM (MDA-MB-435): 105%
- growth at 0.1 µM (TK-10): 98.6%
- growth at 0.1 µM [1]: 105%
- growth at 0.1 µM (A549): 96.5%
- growth at 0.1 µM (ACHN): 107%
- growth at 0.1 µM (UO-31): 80.6%
- MIC (Candida albicans): 500 µg/mL (≈ 1010 µM)
- growth at 0.1 µM (NCI-H23): 103%
- growth at 0.1 µM (SW-620): 107%
- growth at 0.1 µM (NCI-H226): 101%
- growth at 0.1 µM (IGROV-1): 114%
- growth at 0.1 µM (SK-OV-3): 103%
- growth at 0.1 µM (SK-MEL-28): 114%
- MIC (Aspergillus clavatus): 500 µg/mL (≈ 1010 µM)
- growth at 0.1 µM (U-251): 106%
- growth at 0.1 µM (NCI/ADR-RES): 102%
- growth at 0.1 µM (SR): 96.2%
- growth at 0.1 µM (LOX IMVI): 97.6%
- growth at 0.1 µM (UACC-62): 107%
- growth at 0.1 µM (RXF 393): 107%
- growth at 0.1 µM (DU-145): 108%
- growth at 0.1 µM (MOLT-4): 93.2%
- growth at 0.1 µM (A498): 125%
- growth at 0.1 µM (PC-3): 104%
- growth at 0.1 µM [2]: 107%
- MIC (Escherichia coli): 100 µg/mL (≈ 201 µM)
- growth at 0.1 µM [3]: 109%
- growth at 0.1 µM (CCRF-CEM): 108%
- growth at 0.1 µM (SNB-19): 107%
- growth at 0.1 µM (OVCAR-5): 101%
- MIC (Streptococcus pyogenes): 125 µg/mL (≈ 252 µM)
- growth at 0.1 µM (NCI-H460): 112%
- MIC (Pseudomonas aeruginosa): 250 µg/mL (≈ 503 µM)
- growth at 0.1 µM (OVCAR-8): 105%
- growth at 0.1 µM (SNB-75): 92.5%
- growth at 0.1 µM (MCF7): 95.5%
- growth at 0.1 µM (M14): 96.7%
- growth at 0.1 µM (MDA-MB-231): 108%
- growth at 0.1 µM (K562): 98.2%
- growth at 0.1 µM (SF-268): 104%
- MIC (Staphylococcus aureus): 250 µg/mL (≈ 503 µM)
- growth inhibition (GI) [4]: 99%
- MIC ([4]; Mycobacterium tuberculosis, H37Rv): 250 µg/mL (≈ 503 µM)
- growth at 0.1 µM (MDA-MB-468): 98.2%
- growth at 0.1 µM (CAKI-1): 99.5%
- growth at 0.1 µM (NCI-H522): 88.2%
- growth at 0.1 µM (HL-60): 97.3%
- growth at 0.1 µM (SF-295): 97.1%
- growth at 0.1 µM (T47D): 89.9%
- growth at 0.1 µM (HCT-116): 101%
- growth at 0.1 µM (UACC-257): 105%
- growth at 0.1 µM (HOP-62): 99.7%
- growth at 0.1 µM (OVCAR-4): 100%
- growth at 0.1 µM (SK-MEL-5): 105%
